Assay results as given in US10426773B2, “Systems pharmacology for treating ocular disorders” (Case Western Reserve Univeristy, priority 2011, dated 2019).
Entries after “also recorded” stand apart in the source; their conditions may differ. Counter-ions that a name gives are not always drawn.

Columns and labels:
Abca4−/−Rdh8−/− mice [1] = assay: Bright light-induced retinal degeneration in Abca4−/−Rdh8−/− mice, ERG retinal function; conditions: pretreatment before light 10,000 lux 30 min, ERG 7 days to 2 weeks after
Abca4−/−Rdh8−/− mice [2] = assay: Bright light-induced retinal degeneration in Abca4−/−Rdh8−/− mice, OCT imaging of retinal structure; type: in vivo, mouse; conditions: for retinal / photoreceptor morphology by OCT imaging: pretreatment before light 10,000 lux 30 min, OCT 7 days after light exposure; for Percent of mice with: subeffective doses BRM 0.1, MTP 1, TAM 0.05, DOX 1 mg/kg bw, OCT 7 days; for Effect (effectiveness at preventing light-induced photoreceptor degeneration as measured by OCT imaging): ip, dose of each compound in column Dose of Table 1
Abca4−/−Rdh8−/− mice [3] = assay: Bright light-induced retinal degeneration in Abca4−/−Rdh8−/− mice, retinal histology and immunohistochemistry; type: in vivo, mouse; conditions: pretreatment before light 10,000 lux 30 min; 7-10 days after light exposure
Experimental: Retinal histology and immunohistochemistry (IHC) was performed as previously described. Briefly, eye cups free of cornea, lens and vitreous body were fixed in 2% glutaraldehyde/4% paraformaldehyde and processed for Epon embedding. Sections 1 am thick were cut and stained with toluidine blue for histological examination under a light microscope. IHC analysis was performed on 12 am thick cryosections prepared from 4% paraformaldehyde-fixed eye cups. Collected cryosections were subjected to examination for rhodopsin, PNA and DAPI expression.
Retinal immunohistochemistry (IHC) was carried out as previously described. Briefly, eyes were enucleated and eye cups were made to eliminate cornea, lens and vitreous body and fixed in 4% paraformaldehyde and processed for cryosectioning. 12 am thick cryosections were collected cryosections and subjected to examination for rhodopsin, peanut agglutinin lectin (PNA) and DAPI expression.
Retinal immunohistochemistry (IHC) was performed as previously described. Briefly, eyes were enucleated and, after removal of the cornea, lens and vitreous body, eye cups were fixed in 4% paraformaldehyde and processed for cryosectioning. Twelve μm thick cryosections were cut, collected and examined for rhodopsin expression, peanut agglutinin lectin (PNA) for cone sheath and nuclear DAPI staining. […]

Abca4−/−Rdh8−/− mice [4] = assay: Bright light-induced retinal degeneration in Abca4−/−Rdh8−/− mice, SLO autofluorescence imaging; type: in vivo, mouse; conditions: pretreatment before light 10,000 lux 30 min; SLO 8-9 days after light exposure
Experimental: SLO (Heidelberg Engineering, Heidelberg, Germany) was carried out for whole fundus imaging of mouse retinas. Mice were anesthetized by intraperitoneal injection of anesthetic cocktail indicated above, which was followed by pupil dilation using 1% tropicamide prior to SLO imaging under autofluorescence mode.
SLO (Heidelberg Engineering) was carried out for in vivo whole fundus imaging of mouse retinas. […] Numbers of autofluorescent spots were counted and subjected to statistical analyses as described below.
SLO (Heidelberg Engineering) was carried out for whole fundus imaging of mouse retinas in vivo. Mice were anesthetized, and their pupils were dilated as described above. SLO images were then acquired in the autofluorescence mode.

[5] = system: retinal transcriptome of Abca4−/−Rdh8−/− mice; assay: RNA-seq retinal transcriptome of pretreated, light-exposed Abca4−/−Rdh8−/− mice (differential expression, Pearson, GSEA); type: in vivo, mouse
[6] = system: ROS generation in photoreceptors of Abca4−/−Rdh8−/− mice; assay: In vivo detection of ROS (DHE probe) in retinas of light-exposed Abca4−/−Rdh8−/− mice; design: species or system mouse; conditions: Example 1; pretreatment before light 10,000 lux 30 min; retinas 3 h after illumination
Experimental: The ROS probe, DHE, at a dose of 20 mg/kg body weight was administered to Abca4^−/−Rdh8^−/− mice via intraperitoneal injection 30 min prior to light exposure. Eye cups obtained after removing the cornea, lens and vitreous body from enucleated eye globes 3 h post light illumination were fixed in 4% paraformaldehyde. Cryosections were prepared from fixed eye cups and cut at 12 am thickness for microscopic assessment of ROS signal fluorescence in the retina.
The ROS probe, DHE, at a dose of 20 mg/kg body weight in 25 μl of DMSO, was administered to Abca4^−/−Rdh8^−/− mice via intraperitoneal injection 1 h prior to light exposure. Eye cups obtained after removing the cornea, lens, and vitreous body from enucleated eye globes 3 h post light illumination were fixed in 4% paraformaldehyde. Cryosections were prepared from fixed eye cups and cut at 12-am thickness for microscopic assessment of ROS fluorescence in the retina with ImageJ software (National Institutes of Health).

[7] = GSEA, vehicle-treated light-exposed retinas against drug-treated

Row | Compound | retinal / photoreceptor morphology by OCT imaging (Abca4−/−Rdh8−/− mice [2]) | retinal histology / immunohistochemistry (rhodopsin, PNA, DAPI; ONL) (Abca4−/−Rdh8−/− mice [3]) | retinal autofluorescence spots by SLO imaging (Abca4−/−Rdh8−/− mice [4]) | also measured
1 | Cc1nc2sccn2c(=O)c1CCN1CCC(=C(c2ccc(F)cc2)c2ccc(F)cc2)CC1 [ritanserin, Ritanserin] | substantially protected photoreceptors from light-induced degeneration | – | – | retinal function by ERG (a-wave and b-wave amplitudes) (Abca4−/−Rdh8−/− mice [1]): protective effect
2 | CN1CCC(c2cn(C)c3ccc(OS(=O)(=O)c4c(F)cccc4F)cc23)CC1 [SGS 518 oxalate] | profound preservation of photoreceptor morphology | substantially preserved photoreceptor morphology | significantly reduced formation of autofluorescence spots | –
3 | CC(C)C[C@H]1C(=O)N2CCC[C@H]2[C@]2(O)O[C@](NC(=O)[C@@H]3C=C4c5cccc6[nH]c(Br)c(c56)C[C@H]4N(C)C3)(C(C)C)C(=O)N12 [BRM, 2-Bromo-α-ergocryptine methanesulfonate salt] | – | – | – | Percent of mice with (Abca4−/−Rdh8−/− mice [2]; Table 14 (complete protection, ONL ≥50 μm)): 16.7% of mice; Percent of mice with (Abca4−/−Rdh8−/− mice [2]; Table 14 (no protection, ONL ≤20 μm)): 66.7% of mice; light-exposed mice with complete retinal protection (Abca4−/−Rdh8−/− mice [2]; lower doses BRM 0.1, MTP 1, TAM 0.05 mg/kg bw, alone or all three combined): 17%; NES, CHEMOKINE SIGNALING gene set [5, 7]: 1.67; NES, CYTOKINE- RECEPTOR INTERACTIO gene set [5, 7]: 2.31; NES, P53 gene set [5, 7]: 2.06; NES, TOLL-LIKE SIGNALING gene set [5, 7]: 2.20; NES, APOPTOSIS gene set ([5]; GSEA, vehicle-treated light-exposed retinas against drug-treated, P in brackets not reported here): 1.75; number of light-up-regulated gene sets significantly down-regulated (GSEA) ([5]; of 44 gene sets up-regulated by light, mono doses BRM 1, MTP 10, TAM 2.5, DOX 10 mg/kg bw): 29 gene sets
4 | COC(=O)[C@@H]1[C@H]2C[C@H]3c4[nH]c5ccccc5c4CCN3C[C@@H]2CC[C@@H]1O.Cl [Yohimbine] | – | – | – | Effect (effectiveness at preventing light-induced photoreceptor degeneration as measured by OCT imaging) (Abca4−/−Rdh8−/− mice [2]): toxic
5 | O=C(c1ccc(F)cc1)C1CCN(CCn2c(=O)[nH]c3ccccc3c2=O)CC1 [ketanserin] | – | substantial protective effect | – | retinal function by ERG (a-wave and b-wave amplitudes) (Abca4−/−Rdh8−/− mice [1]): protective effect
6 | CC(C)C[C@H](CN)CC(=O)O (single isomer, unassigned) [R and S enantiomer of pregabalin, pregabalin] | – | – | – | ROS production in the ONL / photoreceptors (DHE signal) [6]: also consistently observed
7 | Cl.N=C(N)NC(=O)Cc1c(Cl)cccc1Cl [Guanfacine] | significantly prevented | substantially preserved photoreceptor morphology | markedly less autofluorescence spots | –
8 | CC1=C(/C=C/C(C)=C/C=C/C(C)=C/CN)C(C)(C)CCC1 [Ret-NH2, all-trans-retinylamine] | – | – | – | ROS production in the ONL / photoreceptors (DHE signal) [6]: significantly decreased ROS production
9 | COc1cc2nc(N3CCN(C(=O)c4ccco4)CC3)nc(N)c2cc1OC.Cl [Prazosin] | substantial protection on photoreceptor morphology | substantially preserved photoreceptor morphology | significantly protected retinas from developing light-induced damage | –
10 | CC1CCN(CC[C@H]2CCCN2S(=O)(=O)c2cccc(O)c2)CC1.Cl [SB 269970, 3-({(2R)-2-[2-(4-Methyl-1-piperidinyl)ethyl]-1-pyrrolidinyl}sulfonyl)phenol hydrochloride (1:1)] | profound preservation of photoreceptor morphology | – | significantly reduced formation of autofluorescence spots | –
11 | c1ccc2c(c1)OCC(C1=NCCN1)O2 (stereo not shown) [IDA, idazoxan] | – | – | – | effect on the protective action of GUB (Abca4−/−Rdh8−/− mice [2]; IDA 2.5 and 5 mg/kg BW first, then GUB 2 mg/kg BW, FIG. 25D): totally abolished the protective action
12 | CCCN(CCC)C1CCc2cccc(O)c2C1 (stereo not shown) [8-OH-DPAT, 8-hydroxy-N,N-dipropyl-2-aminotetralin] | protective effect; also recorded: dose-dependent | – | – | –
13 | CNc1cc(NS(=O)(=O)c2ccc(N)cc2)nc(NC)n1 [Ro 04-6790, 4-Amino-N-[2,6-bis(methylamino)-4-pyrimidinyl]benzenesulfonamidev] | profound preservation of photoreceptor morphology | substantially preserved photoreceptor morphology | significantly reduced formation of autofluorescence spots | retinal function by ERG (a-wave and b-wave amplitudes) (Abca4−/−Rdh8−/− mice [1]; listed as RO): substantial preservation of the scotopic ERG response; also recorded: substantial preservation of this response
14 | COc1ccc2c(c1)CC[C@@H]1[C@@H]2CC[C@]2(C)[C@@H](NCCCCCCN3C(=O)C=CC3=O)CC[C@@H]12 [U-73122, 1-(6-((17β-3-methoxyestra-1,3,5(10)-trien-17-yl)amino)hexyl)-1H-pyrrole-2,5-dione] | – | markedly less light-induced photoreceptor damage | – | retinal function by ERG (a-wave and b-wave amplitudes) (Abca4−/−Rdh8−/− mice [1]): protective effect
15 | Eltoprazine | – | – | – | Effect (effectiveness at preventing light-induced photoreceptor degeneration as measured by OCT imaging) (Abca4−/−Rdh8−/− mice [2]): 20%
16 | CC(Oc1c(Cl)cccc1Cl)C1=NCCN1.Cl (stereo not shown) [Lofexidine] | significantly prevented | – | markedly less autofluorescence spots | retinal function by ERG (a-wave and b-wave amplitudes) (Abca4−/−Rdh8−/− mice [1]; listed as LOF): substantial preservation of the scotopic ERG response; also recorded: substantial preservation of this response
17 | C[N+]1(C)CCC(OC(=O)C(c2ccccc2)c2ccccc2)CC1.[I-] [4-DAMP, 1,1-dimethyl-4-diphenylacetoxypiperidinium iodide] | – | preserve retinal morphology | – | retinal function by ERG (a-wave and b-wave amplitudes) (Abca4−/−Rdh8−/− mice [1]): protective effect
18 | c1ccc([I+]c2ccccc2)cc1 [DPI, diphenyliodonium] | well-preserved retinal morphology | nearly intact retinal morphology | – | retinal function by ERG (a-wave and b-wave amplitudes) (Abca4−/−Rdh8−/− mice [1]): protective effect
19 | COc1cc(N)c(Cl)cc1C(=O)OCCCN1CCCCC1.Cl [RS 23579-190] | profound preservation of photoreceptor morphology | substantially preserved photoreceptor morphology | significantly reduced formation of autofluorescence spots | retinal function by ERG (a-wave and b-wave amplitudes) (Abca4−/−Rdh8−/− mice [1]; listed as RS): substantial preservation of the scotopic ERG response; also recorded: substantial preservation of this response
20 | CC(C)n1cc2c3c(cccc31)[C@H]1C[C@@H](C(=O)N[C@H]3CCC[C@H]3O)CN(C)[C@@H]1C2 [LY 215840, (8β)-N-[(1S,2R)-2-Hydroxycyclopentyl]-1-isopropyl-6-methylergoline-8-carboxamide] | profound preservation of photoreceptor morphology | substantially preserved photoreceptor morphology | significantly reduced formation of autofluorescence spots | retinal function by ERG (a-wave and b-wave amplitudes) (Abca4−/−Rdh8−/− mice [1]; listed as LY): substantial preservation of the scotopic ERG response; also recorded: substantial preservation of this response
